Columns and labels:
[1] = test system: glucosylceramide (GlcCer); assay: Pharmacodynamic test using mouse (glucosylceramide lowering effect); assay type: in vivo; conditions: C57BL/6J mice, 10 mg/kg oral, six hours after administration, ± standard deviation
Method: Pharmacodynamic Test Using Mouse (Glucosylceramide Lowering Effect)
For the experiment, C57BL/6J mice were purchased from CLEA Japan, Inc. and used. Glucosylceramide synthase is an enzyme that synthesizes glucosylceramide (GlcCer) from uridine diphosphate glucose and ceramide. Therefore, the glucosylceramide synthase inhibitory effect of the compound of Example 119 was evaluated by measuring the GlcCer concentration in the tissue.
The test compound was prepared in a 0.5% methylcellulose suspension to a dose of 10 mg/kg, and orally administered. Six hours after the administration, the blood and cerebral cortex were collected, the plasma was prepared from the blood, and methanol is added to the cerebral cortex to prepare a homogenate. A mixed solution of isopropanol and ethanol was added to the obtained plasma and the methanol homogenate of the cerebral cortex, and the lipids were extracted. The GlcCer concentrations of the extracted samples were measured by LC/MS/MS.
The results were calculated from the following formula: (GlcCer concentration in the test compound administration group)/(GlcCer concentration in the 0.5% methylcellulose suspension administration group)×100.
The standard deviation values were also shown.

[2] = biological target: T1, glucosylceramide synthase (Homo sapiens, UniProt Q16739); assay: Glucosylceramide synthase (GCS) enzyme assay, microsome fraction, C8 glucosylceramide quantified by Rapidfire MS/MS; assay type: biochemical; conditions: test compound 10 μM; 1.7 μM UDP-glucose, 3 μM C8 ceramide; room temperature 60 min; read-out: GCS enzyme inhibitory rate at 10 μM (%) (% of control)
T1 construct: made in house; host or cells: Expi293F cells (transient expression, pcDNA3.3-TOPO vector); microsome fraction used as enzyme source
T1 sequence (Q16739 1-394): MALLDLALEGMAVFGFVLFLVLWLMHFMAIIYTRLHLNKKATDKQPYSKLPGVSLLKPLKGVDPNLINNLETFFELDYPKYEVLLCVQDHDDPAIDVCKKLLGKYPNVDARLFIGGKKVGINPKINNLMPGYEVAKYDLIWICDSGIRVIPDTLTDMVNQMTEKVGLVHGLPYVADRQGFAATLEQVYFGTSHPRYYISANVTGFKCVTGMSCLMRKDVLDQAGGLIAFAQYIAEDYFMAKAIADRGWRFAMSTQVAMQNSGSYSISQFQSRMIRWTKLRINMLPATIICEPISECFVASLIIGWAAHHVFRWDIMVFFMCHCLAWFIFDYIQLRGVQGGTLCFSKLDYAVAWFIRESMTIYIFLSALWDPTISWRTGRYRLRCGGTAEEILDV
Outline: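 Test compound, 10 μM final, was run against human GCS from transfected Expi293F microsome fractions, using substrate solution of 6 μM C8 ceramide (in DOPC liposomes) plus 3.4 μM UDP-glucose, pH 7.5 Tris buffer, 60 min, room temperature. Product C8 glucosylceramide measured by Rapidfire MS/MS against an internal standard, % inhibition referenced to no-enzyme and DMSO wells.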

[3] = test system: Glucosylsphingosine (GlcSph); assay: Pharmacodynamic test using Gaucher's disease model mouse (glucosylsphingosine lowering effect); assay type: in vivo; conditions: Gba D409V KI mice, two hours after last administration, ± standard deviation
Method: (§1) Pharmacodynamic Test Using Gaucher's Disease Model Mouse (Glucosylceramide and Glucosylsphingosine Lowering Effects)
(§2) Glucosylsphingosine (GlcSph) is known to be produced by deacylation of GlcCer and accumulated in tissues in patient with Gaucher's disease. Therefore, the GlcSph lowering effect of the compound of Example 119 due to the glucosylceramide synthase inhibitory effect was evaluated by measuring the GlcSph concentration in the tissue. For the experiment, Gba D409V KI mice, which were Gaucher's disease model mice in which GlcSph is accumulated, were purchased from Jackson Laboratory and used.
(§3) The test compound was prepared in a 0.5% methylcellulose suspension to a dose of 10 or 30 mg/kg, and orally administered. The administration was performed once a day for 2 months. Two hours after the last administration, the blood and cerebral cortex were collected, the plasma was prepared from the blood, and methanol is added to the cerebral cortex to prepare a homogenate. A mixed solution of isopropanol and ethanol was added to the obtained plasma and the methanol homogenate of the cerebral cortex, and the lipids were extracted. The GlcCer and GlcSph concentrations of the extracted samples were measured by LC/MS/MS.
(§4) The results of GlcCer were calculated from the following formula: (GlcCer concentration in the test compound administration group)/(GlcCer concentration in the 0.5% methylcellulose suspension administration group)×100. The results of GlcSph were calculated from the following formula: (GlcSph concentration in the test compound administration group)/(GlcSph concentration in the 0.5% methylcellulose suspension administration group)×100. The standard deviation values were also shown.

[4] = test system: glucosylceramide (GlcCer); assay: Pharmacodynamic test using Gaucher's disease model mouse (glucosylceramide lowering effect); assay type: in vivo; conditions: Gba D409V KI mice, two hours after last administration, ± standard deviation
Method: as §1, §2, §3, §4

[5] = 10 mg/kg oral once a day for 2 months, cerebral cortex
[6] = 10 mg/kg oral once a day for 2 months, plasma
[7] = 30 mg/kg oral once a day for 2 months, cerebral cortex
[8] = 30 mg/kg oral once a day for 2 months, plasma

CC(C)(O)c1ccc(N2Cc3c(ccnc3-c3ccc(F)cc3OCC(F)(F)F)C2=O)cc1 [Example 119, 4-[4-fluoro-2-(2,2,2-trifluoroethoxy)phenyl]-2-[4-(2-hydroxypropan-2-yl)phenyl]-2,3-dihydro-1H-pyrrolo[3,4-c]pyridin-1-one]
GlcCer (% Control) cerebral cortex ([1]; cerebral cortex): 52 ± 7 % Control | GlcCer (% Control) plasma ([1]; plasma): 49 ± 14 % Control | inhibition at 10 µM [2]: 100% | GlcSph (% Control) cerebral cortex (10 mg/kg) [3, 5]: 73 ± 27 % Control | GlcSph (% Control) Plasma (10 mg/kg) [3, 6]: 58 ± 16 % Control | GlcSph (% Control) cerebral cortex (30 mg/kg) [3, 7]: 61 ± 20 % Control | GlcSph (% Control) Plasma (30 mg/kg) [3, 8]: 36 ± 9 % Control | GlcCer (% Control) cerebral cortex (10 mg/kg) [4, 5]: 58 ± 6 % Control | GlcCer (% Control) Plasma (10 mg/kg) [4, 6]: 40 ± 10 % Control | GlcCer (% Control) cerebral cortex (30 mg/kg) [4, 7]: 40 ± 7 % Control | GlcCer (% Control) Plasma (30 mg/kg) [4, 8]: 21 ± 4 % Control

Reference: patent US12528802B2, “Heterocyclic compound” (Takeda Pharmaceutical Company Limited, priority 2019, dated 2026)
